In patent US20250288571A1 (Nested Therapeutics, Inc., priority 2024, published 2025):
Read-outs that look alike come from different tables or passages of the source.

Columns and labels:
HCT116 cells = assay: HCT116 Cell Titer Glow assay (CTG); conditions: Homo sapiens, HCT-116, 72 h; for IC50: read-out: CTG IC50 (nM) Cell Line: HCT116.20
IPC298 cells = assay: IPC298 Cell Titer Glow assay (CTG); conditions: Homo sapiens, IPC-298, 72 h; for IC50: read-out: CTG IC50 (nM) Cell Line: IPC298.2
[1] = read-out: CTG % cell viability 1000 uM HCT116.20, HCT116 cells, 72 hours, 1000 uM, percent cells remaining after treatment
[2] = read-out: CTG % cell viability 100 uM IPC298.2, IPC298 cells, 72 hours, 100 uM, percent cells remaining after treatment
[3] = read-out: CTG % cell viability 1000 uM HCT116.20
[4] = read-out: CTG % cell viability 100 uM IPC298.2

Row | SMILES | IC50 (HCT116 cells) | viability at 1000 µM (HCT116 cells; [1]) | viability at 100 µM (IPC298 cells; [2]) | IC50 (IPC298 cells) | viability at 1000 µM (HCT116 cells; [3]) | viability at 100 µM (IPC298 cells; [4])
1 | CNS(=O)(=O)Nc1nccc(Cc2cncc(OC3CCC(C)(C)CC3)c2C)c1F [Example 73, 4-[[5-(4,4-dimethylcyclohexoxy)-4-methyl-3-pyridyl]methyl]-3-fluoro-N-(methylsulfamoyl)pyridin-2-amine] | > 1000 nM | 75.4% | 80.8% | > 1000 nM | – | –
2 | CC#CCOc1cncc(Cc2ccnc(NS(=O)(=O)NC)c2F)c1C [Example 75, 4-[(5-but-2-ynoxy-4-methyl-3-pyridyl)methyl]-3-fluoro-N-(methylsulfamoyl)pyridin-2-amine] | > 1000 nM | 89.1% | 87.5% | > 1000 nM | – | –
3 | CNS(=O)(=O)Nc1nccc(Oc2cncc(Oc3ccc(Cl)cc3)c2C)c1F [Example 77, 4-[[5-(4-chlorophenoxy)-4-methyl-3-pyridyl]oxy]-3-fluoro-N-(methylsulfamoyl)pyridin-2-amine] | 100 to 500 nM | – | – | < 10 nM | – | –
4 | CNS(=O)(=O)Nc1nccc(Cc2cncc(Sc3ccc(Cl)cc3)c2C)c1F [Example 78, {[4-({5-[(4-chlorophenyl)sulfanyl]-4-methylpyridin-3-yl}methyl)-3-fluoropyridin-2-yl]sulfamoyl}(methyl)amine] | 100 to 500 nM | – | – | < 10 nM | – | –
5 | CCNS(=O)(=O)Nc1nccc(Cc2cncc(Oc3ccc(Cl)cc3F)c2C)c1F [Example 81, 4-[[5-(4-chloro-2-fluoro-phenoxy)-4-methyl-3-pyridyl]methyl]-N-(ethylsulfamoyl)-3-fluoro-pyridin-2-amine] | 100 to 500 nM | – | – | < 10 nM | – | –
6 | CNS(=O)(=O)Nc1nccc(Cc2cncc(OCc3ccc(Cl)cc3)c2C)c1F [Example 82, 4-[[5-[(4-chlorophenyl)methoxy]-4-methyl-3-pyridyl]methyl]-3-fluoro-N-(methylsulfamoyl)pyridin-2-amine] | > 1000 nM | 93% | 56% | > 1000 nM | – | –
7 | CNS(=O)(=O)Nc1nccc(Oc2cncc(Oc3ccc(C)cc3Cl)c2C)c1F [Example 84, 4-[[5-(2-chloro-4-methyl-phenoxy)-4-methyl-3-pyridyl]oxy]-3-fluoro-N-(methylsulfamoyl)pyridin-2-amine] | 500 to 1000 nM | – | – | < 10 nM | – | –
8 | CNS(=O)(=O)Nc1nccc(Cc2cncc(NC3CC4(C3)CN(C)C4)c2C)c1F [Example 85, N-[5-[[3-fluoro-2-(methylsulfamoylamino)-4-pyridyl]methyl]-4-methyl-3-pyridyl]-2-methyl-2-azaspiro[3.3]heptan-6-amine] | > 1000 nM | – | – | > 1000 nM | 102% | 106%
9 | CNS(=O)(=O)Nc1nccc(Cc2cncc(OCc3cccc(Cl)c3)c2C)c1F [Example 86, 4-[[5-[(3-chlorophenyl)methoxy]-4-methyl-3-pyridyl]methyl]-3-fluoro-N-(methylsulfamoyl)pyridin-2-amine] | 100 to 500 nM | – | – | 10 to 100 nM | – | –
10 | CNS(=O)(=O)Nc1nccc(Cc2cccc3c2CCCN3c2ccc(Cl)cc2F)c1F [Example 87, 4-[[1-(4-chloro-2-fluoro-phenyl)-3,4-dihydro-2H-quinolin-5-yl]methyl]-3-fluoro-N-(methylsulfamoyl)pyridin-2-amine] | > 1000 nM | 95% | 101% | > 1000 nM | – | –
11 | CNS(=O)(=O)Nc1nccc(Cc2cncc(Nc3ccc(CC(C)C)cc3F)c2C)c1F [Example 88, 3-fluoro-4-[[5-(2-fluoro-4-isobutyl-anilino)-4-methyl-3-pyridyl]methyl]-N-(methylsulfamoyl)pyridin-2-amine] | 100 to 500 nM | – | – | < 10 nM | – | –
12 | CNS(=O)(=O)Nc1nccc(Cc2cncc(Oc3ncc(C)s3)c2C)c1F [Example 89, 3-fluoro-4-[[4-methyl-5-(5-methylthiazol-2-yl)oxy-3-pyridyl]methyl]-N-(methylsulfamoyl)pyridin-2-amine] | > 1000 nM | 95% | 100% | > 1000 nM | – | –
13 | Cc1c(Cc2ccnc(NS(=O)(=O)NC(C)C)c2F)cncc1Oc1ccc(Cl)cc1F [Example 90, 4-[[5-(4-chloro-2-fluoro-phenoxy)-4-methyl-3-pyridyl]methyl]-3-fluoro-N-(isopropylsulfamoyl)pyridin-2-amine] | > 1000 nM | 59.5% | – | 10 to 100 nM | – | –
14 | CNS(=O)(=O)Nc1nccc(Cc2cncc(OC3CC4(C3)CN(C)C4)c2C)c1F [Example 92, 3-fluoro-4-[[4-methyl-5-[(2-methyl-2-azaspiro[3.3]heptan-6-yl)oxy]-3-pyridyl]methyl]-N-(methylsulfamoyl)pyridin-2-amine] | > 1000 nM | – | – | > 1000 nM | 103% | 101%
15 | CNS(=O)(=O)Nc1nccc(Cc2cncc(Oc3ccc(OC)cc3F)c2C)c1F [Example 94, 3-fluoro-4-[[5-(2-fluoro-4-methoxy-phenoxy)-4-methyl-3-pyridyl]methyl]-N-(methylsulfamoyl)pyridin-2-amine] | 100 to 500 nM | – | – | < 10 nM | – | –
16 | CNS(=O)(=O)Nc1nccc(Cc2cncc(Oc3ccc(C)c(F)c3)c2C)c1F [Example 103, 3-fluoro-4-[[5-(3-fluoro-4-methyl-phenoxy)-4-methyl-3-pyridyl]methyl]-N-(methylsulfamoyl)pyridin-2-amine] | 100 to 500 nM | – | – | < 10 nM | – | –

More lines, main results first:

Row | IC50 (HCT116 cells) | SMILES | viability at 1000 µM (HCT116 cells; [1]) | viability at 100 µM (IPC298 cells; [2]) | IC50 (IPC298 cells) | viability at 1000 µM (HCT116 cells; [3]) | viability at 100 µM (IPC298 cells; [4])
17 | 100 to 500 nM | CNS(=O)(=O)Nc1nccc(Cc2cncc(Oc3ccc(Cl)cc3C)c2C)c1F [Example 76, 4-[[5-(4-chloro-2-methyl-phenoxy)-4-methyl-3-pyridyl]methyl]-3-fluoro-N-(methylsulfamoyl)pyridin-2-amine] | – | – | < 10 nM | – | –
18 | < 10 nM | CNS(=O)(=O)Nc1nccc(Oc2cncc(Nc3ccc(C)cc3F)c2C)c1F [Example 79] | – | – | < 10 nM | – | –
19 | < 10 nM | CCc1ccc(Nc2cncc(Oc3ccnc(NS(=O)(=O)NC)c3F)c2C)c(F)c1 [Example 80, N-(4-ethyl-2-fluorophenyl)-5-({3-fluoro-2-[(methylsulfamoyl)amino]pyridin-4-yl}oxy)-4-methylpyridin-3-amine] | – | – | < 10 nM | – | –
20 | 10 to 100 nM | CCc1c(Cc2ccnc(NS(=O)(=O)NC)c2F)cncc1Oc1ccc(Cl)cc1 [Example 83, 4-[[5-(4-chlorophenoxy)-4-ethyl-3-pyridyl]methyl]-3-fluoro-N-(methylsulfamoyl)pyridin-2-amine] | – | – | < 10 nM | – | –
21 | 10 to 100 nM | CNS(=O)(=O)Nc1nccc(Cc2cncc(Oc3ccc(C)cc3F)c2C)c1OC [Example 91, 4-[[5-(2-fluoro-4-methyl-phenoxy)-4-methyl-3-pyridyl]methyl]-3-methoxy-N-(methylsulfamoyl)pyridin-2-amine] | – | – | < 10 nM | – | –
22 | 10 to 100 nM | CNS(=O)(=O)Nc1nccc(Cc2cncc(Oc3ccc(Cl)cc3F)c2C)c1OC [Example 93, 4-[[5-(4-chloro-2-fluoro-phenoxy)-4-methyl-3-pyridyl]methyl]-3-methoxy-N-(methylsulfamoyl)pyridin-2-amine] | – | – | < 10 nM | – | –
23 | 10 to 100 nM | CCNS(=O)(=O)Nc1nccc(Cc2cncc(Nc3ccc(C)cc3F)c2C)c1F [Example 95, N-(ethylsulfamoyl)-3-fluoro-4-[[5-(2-fluoro-4-methyl-anilino)-4-methyl-3-pyridyl]methyl]pyridin-2-amine] | – | – | < 10 nM | – | –
24 | 10 to 100 nM | Cc1ccc(Nc2cncc(Cc3ccnc(NS(N)(=O)=O)c3F)c2C)c(F)c1 [Example 96, 3-fluoro-4-[[5-(2-fluoro-4-methyl-anilino)-4-methyl-3-pyridyl]methyl]-2-(sulfamoylamino)pyridine] | – | – | < 10 nM | – | –
25 | < 10 nM | CNS(=O)(=O)Nc1nccc(Oc2cncc(Nc3ccc(C4CC4)cc3F)c2C)c1F [Example 97, 4-[[5-(4-cyclopropyl-2-fluoro-anilino)-4-methyl-3-pyridyl]oxy]-3-fluoro-N-(methylsulfamoyl)pyridin-2-amine] | – | – | < 10 nM | – | –
26 | < 10 nM | CNS(=O)(=O)Nc1nccc(Cc2cncc(Oc3ccc(C4CC4)cc3F)c2C)c1F [Example 99, 4-[[5-(4-cyclopropyl-2-fluoro-phenoxy)-4-methyl-3-pyridyl]methyl]-3-fluoro-N-(methylsulfamoyl)pyridin-2-amine] | – | – | < 10 nM | – | –
27 | 10 to 100 nM | CNS(=O)(=O)Nc1nccc(Oc2cncc(Oc3ccc(Br)cc3F)c2C)c1F [Example 100, 4-[[5-(4-bromo-2-fluoro-phenoxy)-4-methyl-3-pyridyl]oxy]-3-fluoro-N-(methylsulfamoyl)pyridin-2-amine] | – | – | < 10 nM | – | –
28 | 10 to 100 nM | [2H]C([2H])([2H])c1ccc(Oc2cncc(Cc3ccnc(NS(=O)(=O)NC)c3F)c2C)c(F)c1 [Example 101, 3-fluoro-4-[[5-[2-fluoro-4-(trideuteriomethyl)phenoxy]-4-methyl-3-pyridyl]methyl]-N-(methylsulfamoyl)pyridin-2-amine] | – | – | < 10 nM | – | –
29 | 10 to 100 nM | CNS(=O)(=O)Nc1nccc(Oc2cncc(Oc3ccc(C4CC4)cc3F)c2C)c1F [Example 102, 4-[[5-(4-cyclopropyl-2-fluoro-phenoxy)-4-methyl-3-pyridyl]oxy]-3-fluoro-N-(methylsulfamoyl)pyridin-2-amine] | – | – | < 10 nM | – | –
30 | < 10 nM | [2H]C([2H])([2H])c1ccc(Nc2cncc(Cc3ccnc(NS(=O)(=O)NC)c3F)c2C)c(F)c1 [Example 104, 3-fluoro-4-[[5-[2-fluoro-4-(trideuteriomethyl)anilino]-4-methyl-3-pyridyl]methyl]-N-(methylsulfamoyl)pyridin-2-amine] | – | – | < 10 nM | – | –
